Format in all cases: in vivo, C57BL/6 mice
For assay [1], the system named is idiopathic pulmonary fibrosis induced by bleomycin. In words: Degree of inflammation and fibrosis, H&E and Masson's Trichrome staining, bleomycin-induced idiopathic pulmonary fibrosis. To be noted: bleomycin 1.5 U/kg, nintedanib 60 mg/kg, oral once daily for two weeks from day 14, vs untreated. Here is the method: (§1) Each drug was administered starting 14 days after the administration of bleomycin. The drug was orally administered at a dose of 20 mg/kg once daily for two weeks (a total of 13 administrations). The control drug, nintedanib, was administered at a dose of 60 mg/kg, and the co-administration group was orally administered nintedanib (60 mg/kg) together with DCTP (20 mg/kg) once daily for two weeks (a total of 13 administrations).
The results of H&E and Masson's Trichrome staining performed to evaluate the degree of inflammation and fibrosis are shown in FIG. 3.
(§2) Each drug was administered starting 14 days after the administration of bleomycin. Nintedanib and PXDP were each orally administered at a dose of 60 mg/kg once daily for two weeks (a total of 13 administrations), and the group treated with the combination was orally administered nintedanib (60 mg/kg) together with PXDP (60 mg/kg) once daily for two weeks (a total of 13 administrations).
The results of H&E and Masson's Trichrome staining performed to evaluate the degree of inflammation and fibrosis are shown in FIG. 8.

In assay [2] the test system is radiation-induced pulmonary fibrosis (RIPF). In words: Degree of inflammation and fibrosis, H&E and Masson's Trichrome staining, radiation-induced pulmonary fibrosis. To be noted: SBRT 90 Gy, nintedanib 60 mg/kg, oral, 2 weeks after radiation exposure, vs untreated. Here is the method: (§3) One hour before stereotactic body radiation therapy (SBRT; 90 Gy, 4 mm collimator), DCTP and nintedanib, an FDA-approved drug known to inhibit pulmonary fibrosis, were orally administered to seven-week-old male C57BL/6 mice. The degree of pulmonary fibrosis and the inhibitory effect on radiation-induced lung injury were observed two weeks after radiation exposure.
(§4) The DCTP drug was administered at a dose of 30 mg/kg, and nintedanib was administered once daily (o.d.) at a dose of 60 mg/kg.
In addition, to analyze the degree of inflammatory response and the degree of fibrosis two weeks after radiation exposure, H&E staining and Masson's Trichrome staining were performed, and the results are shown in FIG. 5.
(§5) One hour prior to stereotactic body radiation therapy (SBRT; 90 Gy, 4 mm collimator), PXDP and nintedanib, an FDA-approved drug known to inhibit pulmonary fibrosis, were orally administered to seven-week-old male C57BL/6 mice. The degree of pulmonary fibrosis and the inhibitory effect on radiation-induced lung injury were observed two weeks after radiation exposure.
(§6) The PXDP drug was administered at a dose of 100 mg/kg, and nintedanib was administered once daily (o.d.) at a dose of 60 mg/kg. To analyze the degree of inflammatory response and the degree of fibrosis 2 weeks after radiation exposure, H&E staining and Masson's Trichrome staining were performed, and the results are shown in FIG. 11.

Assay [3] concerns idiopathic pulmonary fibrosis induced by bleomycin. As to the kind of experiment: Inhibitory effect on idiopathic pulmonary fibrosis induced by bleomycin, Micro-CT imaging. To be noted: bleomycin 1.5 U/kg, nintedanib 60 mg/kg, oral once daily for two weeks from day 14, 4 weeks after bleomycin, vs untreated. Here is the method:
as §1, §2

Assay [4] concerns radiation-induced pulmonary fibrosis (RIPF). As to the kind of experiment: Inhibitory effect on radiation-induced pulmonary fibrosis, Micro-CT imaging. To be noted: SBRT 90 Gy, 2 weeks after radiation exposure; for degree of fibrosis by Micro-CT imaging: vs untreated. Here is the method: as §3, §4, §5, §6
[5] abbreviates: Example 5, FIG. 8, PXDP 60 mg/kg.
The mark [6] stands for this setting: Example 3, FIG. 5, DCTP 30 mg/kg.
Setting [7] is: Example 6, FIG. 11, PXDP 100 mg/kg.
Where [8] appears, read: Example 5, FIG. 7, PXDP 60 mg/kg.
The mark [9] stands for this setting: Example 6, FIG. 10, PXDP 100 mg/kg, nintedanib 60 mg/kg, oral.

This is an account of results in patent US20260297037A1, “COMPOUND COMPRISING N-METHYLPIPERAZINE ETHANOL CARBAMATE STRUCTURE AND USE THEREOF” (KOREA INSTITUTE OF RADIOLOGICAL & MEDICAL SCIENCES, priority 2023, published 2026).

On to `COC(=O)c1ccc2c(c1)NC(=O)/C2=C(\Nc1ccc(N(C)C(=O)CN2CCN(C)CC2)cc1)c1ccccc1` [nintedanib], for which the “degree of inflammation and fibrosis by H&E and Masson's Trichrome staining” value (“degree of inflammation and fibrosis” for short) in assay [1] (Example 2, FIG. 3, DCTP 20 mg/kg) was “alleviation of pulmonary fibrosis and inflammation”; in assay [1] (setting [5]) it was “alleviation of pulmonary fibrosis and inflammation”; in assay [2] (setting [6]), “reduction in fibrosis and inflammation in the lungs”; in assay [2] (setting [7]), “alleviation of fibrosis and inflammation in the lungs”. For the same molecule, the “degree of fibrosis by Micro-CT imaging” value in assay [3] (Example 2, FIG. 2, DCTP 20 mg/kg) is “reduction in the degree of fibrosis”; in assay [3] (setting [8]), “reduction in the degree of fibrosis”; in assay [4] (Example 3, FIG. 4, nintedanib 60 mg/kg oral once daily), “reduction in the degree of fibrosis”; in assay [4] (setting [9]), “reduction in the degree of fibrosis”.
For the molecule `COc1cc2ncnc(N(C(=O)OCCN3CCN(C)CC3)c3ccc(F)c(Cl)c3)c2cc1NC(=O)/C=C/CN1CCCCC1` [DCTP, 2-(4-methylpiperazin-1-yl)ethyl (E)-(3-chloro-4-fluorophenyl) (7-methoxy-6-(4-(piperidin-1-yl)but-2-enamido)quinazolin-4-yl) carbamate], the “degree of inflammation and fibrosis” value in assay [2] (setting [6]) was “reduction in fibrosis and inflammation in the lungs”.
`CN1CCN(CCOC(=O)N(Cc2ccc(C(F)(F)F)nc2)c2ccc(Cc3c[nH]c4ncc(Cl)cc34)cn2)CC1` [PXDP, 2-(4-methylpiperazin-1-yl)ethyl (5-((5-chloro-1H-pyrrolo[2,3-b]pyridin-3-yl)methyl)pyridin-2-yl)((6-(trifluoromethyl)pyridin-3-yl)methyl) carbamate]: the “degree of inflammation and fibrosis” value is “alleviation of pulmonary fibrosis and inflammation” in assay [1] (setting [5]); “alleviation of fibrosis and inflammation in the lungs” in assay [2] (setting [7]). Also, the “degree of fibrosis by Micro-CT imaging” value in assay [3] (setting [8]) and in assay [4] (setting [9]) was “reduction in the degree of fibrosis” throughout. For the same molecule, the “effect compared with nintedanib (Micro-CT imaging)” value in assay [4] (Example 6, FIG. 10, PXDP 100 mg/kg vs nintedanib 60 mg/kg, oral) is on record as “superior to that of nintedanib”.
